Assay results from US20260048021A1, “NEUTRAL LIPID AND LIPID NANOPARTICLE” (National University Corporation Hokkaido University, priority 2022, published 2026).

Experiments:
factor VII (F7) = conditions: mouse liver; cited from earlier work
[1] = Evaluation of lipid polymorphism by 31P NMR spectroscopy; type: physicochemical; conditions: DOPC/lipid=50/50 (mol %), hydrated with PBS(−), 25° C.
Procedure: The spectrum of a lipid membrane by ^31P NMR spectroscopy differs depending on the phase. Therefore, analysis of a lipid membrane composed of DOPC and a lipid under evaluation was performed by ^31P NMR spectroscopy, the polymorphism of the phase state of the lipid membrane was evaluated from the obtained spectrum, and the ability of the lipid under evaluation to destroy the DOPC membrane was evaluated.
Specifically, DOPC and a lipid under evaluation (DOPE or TOT-10) were mixed at a molar ratio of 1:1 (16 μmol of total lipid) and were dissolved in 300 μL of chloroform, and then the solvent was removed by a distillation apparatus (rotovap) to form a lipid membrane. The resulting lipid membrane was hydrated with 500 μL of PBS(−) at 60° C. to obtain a sample for measurement.
Next, the sample was transferred to an NMR tube, and a proton-decoupled ^31P NMR spectrum was obtained using an ECA500 apparatus manufactured by JEOL Ltd. Acquisition parameters included a […], a spectral width of 280 kHz (for ECX 400P) with 32,768 data points, and an interpulse delay time of 1 second. The temperature was controlled at 25° C. Prior to Fourier transform, exponential multiplication corresponding to a line broadening of 50 Hz was applied to the free induction decay. Chemical shifts were referenced to 85% phosphoric acid (H3PO4) as an external standard. […]

| SMILES | ED50 in factor VII (F7) knockdown (factor VII (F7)) | phase of lipid membrane seen in 31P NMR spectrum [1] |
| --- | --- | --- |
| CCCCC/C=C\C/C=C\CCCCCCCCOC1(OCCCCCCCC/C=C\C/C=C\CCCCC)CCN(C)CC1 [YSK05] | 0.06 mg siRNA/kg |  |
| CCCCCCCC/C=C\CCCCCCCC(=O)OCC(COC(=O)CCCCCCC/C=C\CCCCCCCC)(COC(=O)CCCCCCC/C=C\CCCCCCCC)NC(=O)CCC[N+](C)(C)CC(=O)[O-] [TOT-10, 2-((4-((1,3-bis(oleoyloxy)-2-((oleoyloxy)methyl)propan-2-yl)amino)-4-oxobutyl)dimethylammonio)acetate] |  | a peak derived from the hexagonal phase or isotropic phase was observed instead of a peak derived from the lamellar phase |
| CCCCCCCC/C=C\CCCCCCCC(=O)OC[C@H](COP(=O)(O)OCCN)OC(=O)CCCCCCC/C=C\CCCCCCCC [DOPE, 1,2-dioleoyl-sn-glycero-3-phosphoethanolamine] |  | a peak derived from the lamellar phase was observed |
| CCCCC/C=C\C/C=C\CCCCCCCCC(CCCCCCCC/C=C\C/C=C\CCCCC)OC(=O)CCCN(C)C [DLin-MC3-DMA] | 0.005 mg siRNA/kg |  |
